Results as given in patent US20150105252A1, “SUBSTITUTED PYRAZOLES AS HERBICIDES” (E I DU PONT DE NEMOURS AND COMPANY, priority 2013, published 2015).

Assays:
[1] = tested on: barnyardgrass; test: Test A preemergence; type: in vivo, Echinochloa crus-galli
Method in brief: (§1)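 Ratings express plant response from 0 (no effect) to 100 (complete control), judged visually against untreated controls after approximately 10 days in the greenhouse. Preemergence applications were made as directed soil sprays onto seeded loam–sand mix, and postemergence applications onto 2–10 cm plants at one- to two-leaf stage.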

[2] = tested on: crabgrass, large; test: Test A preemergence; type: in vivo, Digitaria sanguinalis
Method in brief: as §1

[3] = tested on: foxtail, giant; test: Test A preemergence; type: in vivo, Setaria faberii
Method in brief: as §1

[4] = tested on: morningglory; test: Test A preemergence; type: in vivo, Ipomoea spp.
Method in brief: as §1

[5] = tested on: pigweed; test: Test A preemergence; type: in vivo, Amaranthus retroflexus
Method in brief: as §1

[6] = tested on: velvetleaf; test: Test A preemergence; type: in vivo, Abutilon theophrasti
Method in brief: as §1

[7] = tested on: wheat; test: Test A preemergence; type: in vivo, Triticum aestivum; settings: preemergence
Method in brief: as §1

[8] = tested on: corn; test: Test A preemergence; type: in vivo, Zea mays
Method in brief: as §1

[9] = tested on: barnyardgrass; test: Test A postemergence; type: in vivo, Echinochloa crus-galli; settings: Postemergence
Method in brief: as §1

[10] = tested on: crabgrass, large; test: Test A postemergence; type: in vivo, Digitaria sanguinalis
Method in brief: as §1

[11] = tested on: foxtail, giant; test: Test A postemergence; type: in vivo, Setaria faberii
Method in brief: as §1

[12] = tested on: morningglory; test: Test A postemergence; type: in vivo, Ipomoea spp.
Method in brief: as §1

[13] = tested on: pigweed; test: Test A postemergence; type: in vivo, Amaranthus retroflexus
Method in brief: as §1

[14] = tested on: velvetleaf; test: Test A postemergence; type: in vivo, Abutilon theophrasti
Method in brief: as §1

[15] = tested on: wheat; test: Test A postemergence; type: in vivo, Triticum aestivum
Method in brief: as §1

[16] = tested on: corn; test: Test A postemergence; type: in vivo, Zea mays
Method in brief: as §1

[17] = tested on: rice; test: Test B flood; type: in vivo, Oryza sativa; settings: 250 g ai/ha, visual rating on 0 to 100 scale (0 no effect, 100 complete control), 13 to 15 days
Method in brief: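 At two leaves, seedlings received the test compound via the paddy water, pots having been flooded 3 cm over the soil surface and kept so. Greenhouse-held for 13 to 15 days, then judged by eye against controls on a scale running 0 (no effect) to 100 (complete control).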

[18] = tested on: sedge, umbrella; test: Test B flood; type: in vivo, Cyperus difformis; settings: 250 g ai/ha, visual rating on 0 to 100 scale (0 no effect, 100 complete control), 13 to 15 days
Description: (§2) Seeds selected from rice (Oryza sativa), sedge, umbrella (small-flower umbrella sedge Cyperus difformis), ducksalad (Heteranthera limosa), and barnyardgrass (Echinochloa crus-galli) were grown to the 2-leaf stage for testing. At time of treatment, test pots were flooded to 3 cm above the soil surface, treated by application of test compounds directly to the paddy water, and then maintained at that water depth for the duration of the test.
(§3) Treated plants and controls were maintained in a greenhouse for 13 to 15 days, after which time all species were compared to controls and visually evaluated. Plant response ratings, summarized in Table B, are based on a scale of 0 to 100 where 0 is no effect and 100 is complete control. A dash (-) response means no test result.

[19] = tested on: ducksalad; test: Test B flood; type: in vivo, Heteranthera limosa; settings: 250 g ai/ha, visual rating on 0 to 100 scale (0 no effect, 100 complete control), 13 to 15 days
Description: as §2, §3

[20] = tested on: barnyardgrass; test: Test B flood; type: in vivo, Echinochloa crus-galli; settings: 250 g ai/ha, visual rating on 0 to 100 scale (0 no effect, 100 complete control), 13 to 15 days
Description: as §2, §3

[21] = Preemergence, 500 g ai/ha, 0 to 100 scale, 0 no effect, 100 complete control
[22] = preemergence, 125 g ai/ha, visual injury, 0 to 100 scale, approx. 10 days
[23] = 125 g ai/ha, visual injury, 0 to 100 scale, approx. 10 days
[24] = 500 g ai/ha, visual injury after approx. 10 days, 0 to 100 scale (0 no effect, 100 complete control)
[25] = 125 g ai/ha, 0 to 100 scale, 0 no effect, 100 complete control
[26] = 500 g ai/ha, visual rating after approx. 10 days, 0 to 100 scale (0 no effect, 100 complete control)
[27] = Postemergence, 500 g ai/ha, visual rating after approx. 10 days, 0 to 100 scale (0 no effect, 100 complete control)
[28] = postemergence, 125 g ai/ha, about 10 days, visual rating on 0 to 100 scale (0 no effect, 100 complete control)
[29] = preemergence, 500 g ai/ha, visual injury after approx. 10 days, 0 to 100 scale (0 no effect, 100 complete control)

Row | SMILES | Barnyardgrass plant response rating [1, 22] | Crabgrass, Large plant response rating [2, 22] | Foxtail, Giant plant response rating [3, 22] | Morningglory plant response rating [4, 22] | Pigweed plant response rating [5, 22] | Velvetleaf plant response rating [6, 22] | Wheat plant response rating [7, 23] | Wheat plant response rating [7, 24] | Corn plant response rating [8, 22] | Barnyardgrass plant response rating [9, 25] | Barnyardgrass plant response rating [9, 26] | Crabgrass, Large plant response rating [10, 27] | Crabgrass, Large plant response rating [10, 28] | Foxtail, Giant plant response rating [11, 27] | Foxtail, Giant plant response rating [11, 28] | Morningglory plant response rating [12, 27] | Morningglory plant response rating [12, 28] | Pigweed plant response rating [13, 27] | Pigweed plant response rating [13, 28] | Velvetleaf plant response rating [14, 27] | also measured
1 | CCc1cc(C(=O)NC2CC2)nn1Oc1ccnc(C(F)(F)F)c1 [Compound 83, N-cyclopropyl-5-ethyl-1-[[(2-trifluoromethyl)-4-pyridinyl]oxy]-1H-pyrazole-3-carboxamide] | 10 | 100 | 70 | 10 | 90 | 0 | 0 | 60 | 10 | 10 | 40 | 60 | 30 | 60 | 20 | 70 | 20 | 20 | 10 | 30 | Barnyardgrass plant response rating [1, 21]: 90; Crabgrass, Large plant response rating [2, 21]: 100; Foxtail, Giant plant response rating [3, 21]: 100; Morningglory plant response rating [4, 21]: 50; Pigweed plant response rating [5, 21]: 100; Velvetleaf plant response rating [6, 21]: 10; Corn plant response rating [8, 21]: 60; Velvetleaf plant response rating [14, 28]: 30; Wheat plant response rating [15, 27]: 40; Wheat plant response rating [15, 28]: 0; Corn plant response rating [16, 27]: 70; Corn plant response rating [16, 28]: 10; Plant response rating, Rice [17]: 10; Plant response rating, Sedge, Umbrella [18]: 70; Plant response rating, Ducksalad [19]: 60; Plant response rating, Barnyardgrass [20]: 0
2 | CCc1cc(C(=O)NCC(F)(F)F)nn1Oc1ccnc(C(F)(F)F)c1 [Compound 84] | 10 | 90 | 40 | 0 | 50 | 0 | 0 | 50 | 10 | 10 | 30 | 50 | 20 | 50 | 10 | 70 | 20 | 20 | 10 | 30 | Barnyardgrass plant response rating [1, 21]: 70; Crabgrass, Large plant response rating [2, 21]: 100; Foxtail, Giant plant response rating [3, 21]: 80; Morningglory plant response rating [4, 21]: 30; Pigweed plant response rating [5, 21]: 100; Velvetleaf plant response rating [6, 21]: 50; Corn plant response rating [8, 21]: 40; Velvetleaf plant response rating [14, 28]: 20; Wheat plant response rating [15, 27]: 40; Wheat plant response rating [15, 28]: 0; Corn plant response rating [16, 27]: 40; Corn plant response rating [16, 28]: 10; Plant response rating, Rice [17]: 0; Plant response rating, Sedge, Umbrella [18]: 60; Plant response rating, Ducksalad [19]: 20; Plant response rating, Barnyardgrass [20]: 0
3 | CCCCNC(=O)c1cc(CC)n(Oc2ccnc(C(F)(F)F)c2)n1 [Compound 86] | 0 | 50 | 0 | 0 | 0 | 0 | 0 | 0 | 0 | 0 | 20 | 50 | 10 | 40 | 10 | 60 | 10 | 0 | 0 | 40 | Barnyardgrass plant response rating [1, 29]: 50; Crabgrass, Large plant response rating [2, 29]: 80; Foxtail, Giant plant response rating [3, 29]: 80; Morningglory plant response rating [4, 29]: 20; Pigweed plant response rating [5, 29]: 0; Velvetleaf plant response rating [6, 29]: 0; Corn plant response rating [8, 29]: 20; Velvetleaf plant response rating [14, 28]: 30; Wheat plant response rating [15, 27]: 10; Wheat plant response rating [15, 28]: 0; Corn plant response rating [16, 27]: 30; Corn plant response rating [16, 28]: 10; Plant response rating, Rice [17]: 0; Plant response rating, Sedge, Umbrella [18]: 40; Plant response rating, Ducksalad [19]: 0; Plant response rating, Barnyardgrass [20]: 0
4 | CCc1cc(C(=O)NCC(F)(F)F)nn1Oc1cccc(C(F)(F)F)n1 [Compound 87] | 0 | 0 | 0 | 0 | 0 | 0 | 0 | 0 | 0 | 0 | 0 | 10 | 0 | 0 | 0 | 20 | 10 | 10 | 0 | 10 | Barnyardgrass plant response rating [1, 29]: 0; Crabgrass, Large plant response rating [2, 29]: 80; Foxtail, Giant plant response rating [3, 29]: 0; Morningglory plant response rating [4, 29]: 10; Pigweed plant response rating [5, 29]: 40; Velvetleaf plant response rating [6, 29]: 0; Corn plant response rating [8, 29]: 0; Velvetleaf plant response rating [14, 28]: 0; Wheat plant response rating [15, 27]: 0; Wheat plant response rating [15, 28]: 0; Corn plant response rating [16, 27]: 0; Corn plant response rating [16, 28]: 0; Plant response rating, Rice [17]: 0; Plant response rating, Sedge, Umbrella [18]: 0; Plant response rating, Ducksalad [19]: 0; Plant response rating, Barnyardgrass [20]: 0
5 | CCCc1cc(C(=O)NCC(F)(F)F)nn1Oc1ccnc(C(F)(F)F)c1 [Compound 92] | 0 | 20 | 20 | 0 | 40 | 0 | 0 | 20 | 0 | 0 | 40 | 30 | 0 | 50 | 0 | 40 | 0 | 40 | 0 | 20 | Barnyardgrass plant response rating [1, 29]: 90; Crabgrass, Large plant response rating [2, 29]: 100; Foxtail, Giant plant response rating [3, 29]: 100; Morningglory plant response rating [4, 29]: 20; Pigweed plant response rating [5, 29]: 100; Velvetleaf plant response rating [6, 29]: 0; Corn plant response rating [8, 29]: 40; Velvetleaf plant response rating [14, 28]: 0; Wheat plant response rating [15, 27]: 20; Wheat plant response rating [15, 28]: 0; Corn plant response rating [16, 27]: 40; Corn plant response rating [16, 28]: 0; Plant response rating, Rice [17]: 0; Plant response rating, Sedge, Umbrella [18]: 50; Plant response rating, Ducksalad [19]: 50; Plant response rating, Barnyardgrass [20]: 0
